Data as given in ChEMBL document CHEMBL1212752, “Efficacy of posaconazole in a murine disseminated infection by Candida tropicalis” (2010).
≈ marks a conversion by molar mass, not a printed value. Calls of active or inactive are those of the source. No cut-off for these calls is given here.

Legend:
Candida tropicalis [1] = test: Antifungal activity against Candida tropicalis FMR 9727 infected in immunosuppressed OF1 mouse assessed as prolongation of mouse survival at 50 mg/kg, po qd for 5 days; format: functional, organism-based; design: dose 50 mg/kg
Candida tropicalis [2] = test: Antifungal activity against Candida tropicalis FMR 8895 infected in immunosuppressed OF1 mouse assessed as reduction in fungal tissue burden in mouse spleen at 25 mg/kg, po bid for 5 days; format: functional, organism-based; design: dose 25 mg/kg
Candida tropicalis [3] = test: Antifungal activity against Candida tropicalis FMR 10237 infected in immunosuppressed OF1 mouse assessed as reduction in fungal tissue burden in mouse spleen at 25 mg/kg, po bid for 5 days; format: functional, organism-based; design: dose 25 mg/kg
Candida tropicalis [4] = test: Antifungal activity against Candida tropicalis FMR 10235 assessed as inhibition of growth by broth dilution method; format: functional
Candida tropicalis [5] = test: Antifungal activity against Candida tropicalis FMR 10240 assessed as compound concentration causing =>99% reduction in microbial growth; format: functional
Candida tropicalis [6] = test: Antifungal activity against Candida tropicalis FMR 10237 infected in immunosuppressed OF1 mouse assessed as reduction in fungal tissue burden in mouse kidney at 25 mg/kg, po bid for 5 days; format: functional, organism-based; design: dose 25 mg/kg
Candida tropicalis [7] = test: Antifungal activity against Candida tropicalis FMR 10239 infected in immunosuppressed OF1 mouse assessed as reduction in fungal tissue burden in mouse kidney at 50 mg/kg, po qd for 5 dayss; format: functional, organism-based; design: dose 50 mg/kg
Candida tropicalis [8] = test: Antifungal activity against Candida tropicalis FMR 10237 infected in immunosuppressed OF1 mouse assessed as reduction in fungal tissue burden in mouse kidney at 50 mg/kg, po qd for 5 days; format: functional, organism-based; design: dose 50 mg/kg
Candida tropicalis [9] = test: Antifungal activity against Candida tropicalis FMR 10333 assessed as inhibition of growth by broth dilution method; format: functional
Candida tropicalis [10] = test: Antifungal activity against Candida tropicalis FMR 10232 assessed as inhibition of growth by broth dilution method; format: functional
Candida tropicalis [11] = test: Antifungal activity against Candida tropicalis FMR 10231 assessed as compound concentration causing =>99% reduction in microbial growth; format: functional
Candida tropicalis [12] = test: Antifungal activity against Candida tropicalis FMR 9727 infected in immunosuppressed OF1 mouse assessed as prolongation of mouse survival at 25 mg/kg, po bid for 5 days; format: functional, organism-based; design: dose 25 mg/kg
Candida tropicalis [13] = test: Antifungal activity against Candida tropicalis FMR 8895 assessed as inhibition of growth by broth dilution method; format: functional
Candida tropicalis [14] = test: Antifungal activity against Candida tropicalis FMR 10239 infected in immunosuppressed OF1 mouse assessed as reduction in fungal tissue burden in mouse kidney at 25 mg/kg, po bid for 5 dayss; format: functional, organism-based; design: dose 25 mg/kg
Candida tropicalis [15] = test: Antifungal activity against Candida tropicalis FMR 10236 assessed as inhibition of growth by broth dilution method; format: functional
Candida tropicalis [16] = test: Antifungal activity against Candida tropicalis FMR 10239 infected in immunosuppressed OF1 mouse assessed as reduction in fungal tissue burden in mouse spleen at 50 mg/kg, po qd for 5 days; format: functional, organism-based; design: dose 50 mg/kg
Candida tropicalis [17] = test: Antifungal activity against Candida tropicalis FMR 8897 assessed as inhibition of growth by broth dilution method; format: functional
Candida tropicalis [18] = test: Antifungal activity against Candida tropicalis FMR 9726 infected in immunosuppressed OF1 mouse assessed as reduction in fungal tissue burden in mouse kidney at 50 mg/kg, po qd for 5 days; format: functional, organism-based; design: dose 50 mg/kg
Candida tropicalis [19] = test: Antifungal activity against Candida tropicalis FMR 10237 infected in immunosuppressed OF1 mouse assessed as reduction in fungal tissue burden in mouse spleen at 50 mg/kg, po qd for 5 days; format: functional, organism-based; design: dose 50 mg/kg
Candida tropicalis [20] = test: Antifungal activity against Candida tropicalis FMR 10241 assessed as inhibition of growth by broth dilution method; format: functional
Candida tropicalis [21] = test: Antifungal activity against Candida tropicalis FMR 9727 infected in immunosuppressed OF1 mouse assessed as reduction in fungal tissue burden in mouse spleen at 50 mg/kg, po qd for 5 days; format: functional, organism-based; design: dose 50 mg/kg
Candida tropicalis [22] = test: Antifungal activity against Candida tropicalis FMR 8895 infected in immunosuppressed OF1 mouse assessed as prolongation of mouse survival at 25 mg/kg, po bid for 5 days; format: functional, organism-based; design: dose 25 mg/kg
Candida tropicalis [23] = test: Antifungal activity against Candida tropicalis FMR 10235 assessed as compound concentration causing =>99% reduction in microbial growth; format: functional
Candida tropicalis [24] = test: Antifungal activity against Candida tropicalis FMR 9727 infected in immunosuppressed OF1 mouse assessed as reduction in fungal tissue burden in mouse kidney at 50 mg/kg, po qd for 5 days; format: functional, organism-based; design: dose 50 mg/kg
Candida tropicalis [25] = test: Antifungal activity against Candida tropicalis FMR 9727 infected in immunosuppressed OF1 mouse assessed as reduction in fungal tissue burden in mouse spleen at 25 mg/kg, po bid for 5 days; format: functional, organism-based; design: dose 25 mg/kg
Candida tropicalis [26] = test: Antifungal activity against Candida tropicalis FMR 9726 infected in immunosuppressed OF1 mouse assessed as prolongation of mouse survival at 50 mg/kg, po qd for 5 days; format: functional, organism-based; design: dose 50 mg/kg
Candida tropicalis [27] = test: Antifungal activity against Candida tropicalis FMR 10333 assessed as compound concentration causing =>99% reduction in microbial growth; format: functional
Candida tropicalis [28] = test: Antifungal activity against Candida tropicalis FMR 10239 infected in immunosuppressed OF1 mouse assessed as reduction in fungal tissue burden in mouse spleen at 25 mg/kg, po bid for 5 days; format: functional, organism-based; design: dose 25 mg/kg
Candida tropicalis [29] = test: Antifungal activity against Candida tropicalis FMR 10238 assessed as inhibition of growth by broth dilution method; format: functional
Candida tropicalis [30] = test: Antifungal activity against Candida tropicalis FMR 9727 infected in immunosuppressed OF1 mouse assessed as reduction in fungal tissue burden in mouse kidney at 25 mg/kg, po bid for 5 days; format: functional, organism-based; design: dose 25 mg/kg
Candida tropicalis [31] = test: Antifungal activity against Candida tropicalis FMR 10231 assessed as inhibition of growth by broth dilution method; format: functional
Candida tropicalis [32] = test: Antifungal activity against Candida tropicalis FMR 8895 assessed as compound concentration causing =>99% reduction in microbial growth; format: functional

## CC[C@@H]([C@H](C)O)n1ncn(-c2ccc(N3CCN(c4ccc(OC[C@@H]5CO[C@@](Cn6cncn6)(c6ccc(F)cc6F)C5)cc4)CC3)cc2)c1=O [POSACONAZOLE]
Candida tropicalis [1]
  Activity: Active
Candida tropicalis [2]
  Activity: inactive
Candida tropicalis [3]
  Activity: Active
Candida tropicalis [4]
  MIC50: 0.125 µg/mL (≈ 0.178 µM)
Candida tropicalis [5]
  MFC: > 16 µg/mL
Candida tropicalis [6]
  Activity: Active
Candida tropicalis [7]
  Activity: Active
Candida tropicalis [8]
  Activity: Active
Candida tropicalis [9]
  MIC50: 0.06 µg/mL (≈ 0.0856 µM)
Candida tropicalis [10]
  MIC50: 0.06 µg/mL (≈ 0.0856 µM)
Candida tropicalis [11]
  MFC: > 16 µg/mL
Candida tropicalis [12]
  Activity: Active
Candida tropicalis [13]
  MIC50: > 16 µg/mL
Candida tropicalis [14]
  Activity: Active
Candida tropicalis [15]
  MIC50: 0.06 µg/mL (≈ 0.0856 µM)
Candida tropicalis [16]
  Activity: Active
Candida tropicalis [17]
  MIC50: 0.06 µg/mL (≈ 0.0856 µM)
Candida tropicalis [18]
  Activity: Active
Candida tropicalis [19]
  Activity: Active
Candida tropicalis [20]
  MIC50: 0.125 µg/mL (≈ 0.178 µM)
Candida tropicalis [21]
  Activity: Active
Candida tropicalis [22]
  Activity: Active
Candida tropicalis [23]
  MFC: > 16 µg/mL
Candida tropicalis [24]
  Activity: Active
Candida tropicalis [25]
  Activity: Active
Candida tropicalis [26]
  Activity: Active
Candida tropicalis [27]
  MFC: > 16 µg/mL
Candida tropicalis [28]
  Activity: Active
Candida tropicalis [29]
  MIC50: 0.06 µg/mL (≈ 0.0856 µM)
Candida tropicalis [30]
  Activity: Active
Candida tropicalis [31]
  MIC50: 0.06 µg/mL (≈ 0.0856 µM)
Candida tropicalis [32]
  MFC: > 16 µg/mL
